Source: patent US12441695B2, “Substituted thiadiazinone dioxide and preparation method therefor, herbicidal composition, and application therefor” (Qingdao Kingagroot Chemical Compound Co., Ltd., priority 2019, dated 2025)

Columns and labels:
[1] = tested on: monocotyledonous and dicotyledonous weeds; assay: Experiment on weeding effect in post-emergence stage (weeds); format: in vivo; conditions: 3 weeks after application; for Amaranthus retroflexus activity level (growth control rate): fomesafen-resistant Amaranthus retroflexus
Excerpt: The activity level criteria for plant damage (i.e., growth control rate) are as follows: • Level 5: growth control rate is above 85%; • Level 4: growth control rate is greater than or equal to 60% and less than 85%; • Level 3: growth control rate is greater than or equal to 40% and less than 60%; • Level 2: growth control rate is greater than or equal to 20% and less than 40%; • Level 1: growth control rate is greater than or equal to […]; • Level 0: growth control rate is less than 5%.
(§1) The above growth control rates are fresh weight control rates.
(§2) (1) Experiment on weeding effect in post-emergence stage: monocotyledonous and dicotyledonous weed seeds and major crop seeds (wheat, corn, rice, soybean, cotton, oilseed rape, millet, sorghum) were placed in plastic pots filled with soil, then covered with 0.5-2 cm of soil, allowed to grow in a good greenhouse environment. After 2-3 weeks of sowing, the test plants were treated. The tested compounds of the present invention were respectively dissolved in acetone, then added with Tween 80, diluted with a certain amount of water to obtain a solution with a certain concentration, and sprayed with a spray tower onto the plants. After the application, the plants were cultured for 3 weeks in the greenhouse, and then the experimental results of the weeding were listed in Table 2.

[2] = tested on: major crops (wheat, corn, rice, soybean, cotton, oilseed rape, millet, sorghum); assay: Experiment on weeding effect in post-emergence stage (crops); format: in vivo; conditions: 600 g/ha active ingredient plus water 450 kg/ha, 3 weeks after application; for corn plant damage level (growth control rate): crop corn; for rice plant damage level (growth control rate): crop rice; for soybean plant damage level (growth control rate): crop soybean
Procedure: as §1
as §2, with “plants.” for “plants. After the application, the plants were cultured for 3 weeks in the greenhouse, and then the experimental results of the weeding were listed in Table 2.”

[3] = 600 g/ha active ingredient plus water 450 kg/ha, fresh weight control rate

Row | Compound | Amaranthus retroflexus activity level (growth control rate) [1, 3] | Echinochloa crus-galli activity level (growth control rate) [1, 3] | Setaria viridis activity level (growth control rate) [1, 3] | corn plant damage level (growth control rate) [2] | rice plant damage level (growth control rate) [2] | Digitaria sanguinalis activity level (growth control rate) [1, 3] | soybean plant damage level (growth control rate) [2] | Digitaria sanguinalis activity level (growth control rate) ([1]; 300 g/ha) | Echinochloa crus-galli activity level (growth control rate) ([1]; 300 g/ha) | Setaria viridis activity level (growth control rate) ([1]; 300 g/ha) | Amaranthus retroflexus activity level (growth control rate) ([1]; 300 g/ha)
1 | CCCOC(=O)N1c2c(F)cc(F)cc2C(=O)N(C(C)C)S1(=O)=O [Compound 218] | 5 (Level 5: growth control rate is above 85%) | 4 (Level 4: growth control rate is greater than or equal to 60% and less than 85%) | 5 (Level 5: growth control rate is above 85%) | 0 (Level 0: growth control rate is less than 5%) | 1 (Level 1: growth control rate is greater than or equal to 500 and less than 200%) | – | – | – | – | – | –
2 | CC(=O)N1c2c(F)cc(F)cc2C(=O)N(C(C)C)S1(=O)=O [Compound 150] | 5 (Level 5: growth control rate is above 85%) | 5 (Level 5: growth control rate is above 85%) | 5 (Level 5: growth control rate is above 85%) | 1 (Level 1: growth control rate is greater than or equal to 500 and less than 200%) | 1 (Level 1: growth control rate is greater than or equal to 500 and less than 200%) | 5 (Level 5: growth control rate is above 85%) | 1 (Level 1: growth control rate is greater than or equal to 500 and less than 200%) | – | – | – | –
3 | CCOC(=O)OC(C)N1c2ccc(F)cc2C(=O)N(C(C)C)S1(=O)=O (centres unmarked) [Compound 64] | 5 (Level 5: growth control rate is above 85%) | 4 (Level 4: growth control rate is greater than or equal to 60% and less than 85%) | 3 (Level 3: growth control rate is greater than or equal to 40% and less than 60%) | 0 (Level 0: growth control rate is less than 5%) | 0 (Level 0: growth control rate is less than 5%) | 3 (Level 3: growth control rate is greater than or equal to 40% and less than 60%) | 0 (Level 0: growth control rate is less than 5%) | – | – | – | –
4 | CC(C)N1C(=O)c2cc(Cl)ccc2NS1(=O)=O [A, reference compound] | 1 (Level 1: growth control rate is greater than or equal to 500 and less than 200%) | 1 (Level 1: growth control rate is greater than or equal to 500 and less than 200%) | 2 (Level 2: growth control rate is greater than or equal to 20% and less than 40%) | 0 (Level 0: growth control rate is less than 5%) | 0 (Level 0: growth control rate is less than 5%) | 1 (Level 1: growth control rate is greater than or equal to 500 and less than 200%) | 0 (Level 0: growth control rate is less than 5%) | – | – | – | –
5 | CC(C)N1C(=O)c2cc(F)ccc2N(C(=O)N(C)C)S1(=O)=O [Compound 190] | 3 (Level 3: growth control rate is greater than or equal to 40% and less than 60%) | – | – | 0 (Level 0: growth control rate is less than 5%) | 0 (Level 0: growth control rate is less than 5%) | – | 0 (Level 0: growth control rate is less than 5%) | – | – | – | –
6 | CC(C)N1C(=O)c2cc(F)ccc2N(C(=O)C2CC2)S1(=O)=O [Compound 184] | 5 (Level 5: growth control rate is above 85%) | – | 3 (Level 3: growth control rate is greater than or equal to 40% and less than 60%) | 1 (Level 1: growth control rate is greater than or equal to 500 and less than 200%) | – | 3 (Level 3: growth control rate is greater than or equal to 40% and less than 60%) | – | – | – | – | –
7 | CCS(=O)(=O)N1c2ccc(F)cc2C(=O)N(C(C)C)S1(=O)=O [Compound 195] | 3 (Level 3: growth control rate is greater than or equal to 40% and less than 60%) | 3 (Level 3: growth control rate is greater than or equal to 40% and less than 60%) | – | 0 (Level 0: growth control rate is less than 5%) | 0 (Level 0: growth control rate is less than 5%) | – | 0 (Level 0: growth control rate is less than 5%) | – | – | – | –
8 | CCCS(=O)(=O)N1c2ccc(F)cc2C(=O)N(C(C)C)S1(=O)=O [Compound 196] | 5 (Level 5: growth control rate is above 85%) | 5 (Level 5: growth control rate is above 85%) | 5 (Level 5: growth control rate is above 85%) | 0 (Level 0: growth control rate is less than 5%) | – | 3 (Level 3: growth control rate is greater than or equal to 40% and less than 60%) | 0 (Level 0: growth control rate is less than 5%) | – | – | – | –
9 | CC(C)N1C(=O)c2cccc(F)c2NS1(=O)=O [D, reference compound] | 2 (Level 2: growth control rate is greater than or equal to 20% and less than 40%) | 1 (Level 1: growth control rate is greater than or equal to 500 and less than 200%) | 2 (Level 2: growth control rate is greater than or equal to 20% and less than 40%) | 0 (Level 0: growth control rate is less than 5%) | 0 (Level 0: growth control rate is less than 5%) | 1 (Level 1: growth control rate is greater than or equal to 500 and less than 200%) | 1 (Level 1: growth control rate is greater than or equal to 500 and less than 200%) | – | – | – | –
10 | CCN1c2ccc(F)cc2C(=O)N(C(C)C)S1(=O)=O [Compound 176] | 5 (Level 5: growth control rate is above 85%) | – | – | 0 (Level 0: growth control rate is less than 5%) | 0 (Level 0: growth control rate is less than 5%) | – | 0 (Level 0: growth control rate is less than 5%) | – | – | – | –
11 | CS(=O)(=O)NC(=O)c1cc(Oc2ccc(C(F)(F)F)cc2Cl)ccc1[N+](=O)[O-] [fomesafen, reference compound] | – | – | – | – | – | – | – | 0 (Level 0: growth control rate is less than 5%) | 1 (Level 1: growth control rate is greater than or equal to 500 and less than 200%) | 2 (Level 2: growth control rate is greater than or equal to 20% and less than 40%) | 1 (Level 1: growth control rate is greater than or equal to 500 and less than 200%)
12 | CC(C)N1C(=O)c2cc(F)cc(F)c2N(C(=O)OCCCCl)S1(=O)=O [Compound 221] | 5 (Level 5: growth control rate is above 85%) | 4 (Level 4: growth control rate is greater than or equal to 60% and less than 85%) | 5 (Level 5: growth control rate is above 85%) | – | – | 5 (Level 5: growth control rate is above 85%) | – | – | – | – | –
13 | CCS(=O)(=O)N1c2c(F)cc(F)cc2C(=O)N(C(C)C)S1(=O)=O [Compound 228] | 5 (Level 5: growth control rate is above 85%) | 3 (Level 3: growth control rate is greater than or equal to 40% and less than 60%) | 5 (Level 5: growth control rate is above 85%) | – | – | 3 (Level 3: growth control rate is greater than or equal to 40% and less than 60%) | – | – | – | – | –
